Source: PubChem BioAssay AID2060891 (Molecular Pharmacology Branch, DTP, NCI, 2025)

System: K98450-129-R-PDC complex spheroid growth, percent test/control
Assay: Anticancer human tumor K98450-129-R-PDC patient-derived colon adenocarcinoma cell line growth inhibition [RAS]
Conditions: for IC50: curve of first compound; for viability, T/C: stronger effect = lower value
How it was run: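 Multi-cell-type spheroids: tumor cells plus HUVEC endothelial cells and mesenchymal stem cells. RAS-pathway inhibitors were combined with targeted agents, each dosed in half-log steps down from clinical Cmax, or from 10 microM when Cmax was unknown.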

[1] = second compound 0.000949 µM, first compound 0.0316 µM
[2] = second compound 0.000949 µM, first compound 0.1 µM
[3] = second compound 0.000949 µM, first compound 0.316 µM
[4] = second compound 0.000949 µM, first compound 1 µM
[5] = second compound 0.000949 µM, first compound 3.16 µM
[6] = second compound 0.000949 µM, first compound 10 µM
[7] = second compound 0.003 µM, first compound 0.0316 µM
[8] = second compound 0.003 µM, first compound 0.1 µM
[9] = second compound 0.003 µM, first compound 0.316 µM
[10] = second compound 0.003 µM, first compound 1 µM
[11] = second compound 0.003 µM, first compound 3.16 µM
[12] = second compound 0.003 µM, first compound 10 µM
[13] = second compound 0.00949 µM, first compound 0.0316 µM
[14] = second compound 0.00949 µM, first compound 0.1 µM
[15] = second compound 0.00949 µM, first compound 0.316 µM
[16] = second compound 0.00949 µM, first compound 1 µM
[17] = second compound 0.00949 µM, first compound 3.16 µM
[18] = second compound 0.00949 µM, first compound 10 µM
[19] = second compound 0.03 µM, first compound 0.0316 µM
[20] = second compound 0.03 µM, first compound 0.1 µM
[21] = second compound 0.03 µM, first compound 0.316 µM
[22] = second compound 0.03 µM, first compound 1 µM
[23] = second compound 0.03 µM, first compound 3.16 µM
[24] = second compound 0.03 µM, first compound 10 µM
[25] = second compound 0.0949 µM, first compound 0.0316 µM
[26] = second compound 0.0949 µM, first compound 0.1 µM
[27] = second compound 0.0949 µM, first compound 0.316 µM
[28] = second compound 0.0949 µM, first compound 1 µM
[29] = second compound 0.0949 µM, first compound 3.16 µM
[30] = second compound 0.0949 µM, first compound 10 µM
[31] = second compound 0.3 µM, first compound 0.0316 µM
[32] = second compound 0.3 µM, first compound 0.1 µM
[33] = second compound 0.3 µM, first compound 0.316 µM
[34] = second compound 0.3 µM, first compound 1 µM
[35] = second compound 0.3 µM, first compound 3.16 µM
[36] = second compound 0.3 µM, first compound 10 µM
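Further: spheroids exposed to agents for seven days before the viability readout.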
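Wherever viability, T/C is given: luminescence used as a proxy for viable cell amount.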

CC1(O)CCCC1n1c(=O)c(C(F)F)cc2cnc(NC3CCN(S(C)(=O)=O)CC3)nc21 (centres undefined) + CCn1c(-c2cc(N3CCN(C)CC3)cnc2C(C)OC)c2c3cc(ccc31)-c1csc(n1)CC(NC(=O)C1CC1C)C(=O)N1CCCC(N1)C(=O)OCC(C)(C)C2
IC50 (second compound 0.000949 µM): > 10000 nM
IC50 (second compound 0.003 µM): > 10000 nM
IC50 (second compound 0.00949 µM): 2340 nM
IC50 (second compound 0.03 µM): < 31.6 nM
IC50 (second compound 0.0949 µM): < 31.6 nM
IC50 (second compound 0.3 µM): < 31.6 nM
viability, T/C [1]: 97.3%
viability, T/C [2]: 94.3%
viability, T/C [3]: 95.8%
viability, T/C [4]: 72%
viability, T/C [5]: 72.1%
viability, T/C [6]: 78.4%
viability, T/C [7]: 81.7%
viability, T/C [8]: 78.6%
viability, T/C [9]: 60.3%
viability, T/C [10]: 74.2%
viability, T/C [11]: 68.3%
viability, T/C [12]: 71%
viability, T/C [13]: 77.1%
viability, T/C [14]: 69.8%
viability, T/C [15]: 60.5%
viability, T/C [16]: 50.9%
viability, T/C [17]: 50.5%
viability, T/C [18]: 47.8%
viability, T/C [19]: 47.9%
viability, T/C [20]: 46.9%
viability, T/C [21]: 48.4%
viability, T/C [22]: 36.6%
viability, T/C [23]: 35.4%
viability, T/C [24]: 28.2%
viability, T/C [25]: 22.6%
viability, T/C [26]: 22.1%
viability, T/C [27]: 18.2%
viability, T/C [28]: 17.9%
viability, T/C [29]: 21%
viability, T/C [30]: 17.7%
viability, T/C [31]: 11.4%
viability, T/C [32]: 11.9%
viability, T/C [33]: 12.3%
viability, T/C [34]: 13.8%
viability, T/C [35]: 12.7%
viability, T/C [36]: 11.8%

CCC(CC)c1cc(NC2CCC(N)C2)n2nccc2n1 (centres undefined) + CCn1c(-c2cc(N3CCN(C)CC3)cnc2C(C)OC)c2c3cc(ccc31)-c1csc(n1)CC(NC(=O)C1CC1C)C(=O)N1CCCC(N1)C(=O)OCC(C)(C)C2
IC50 (second compound 0.000949 µM): 4120 nM
IC50 (second compound 0.003 µM): 3690 nM
IC50 (second compound 0.00949 µM): 2350 nM
IC50 (second compound 0.03 µM): 887 nM
IC50 (second compound 0.0949 µM): < 31.6 nM
IC50 (second compound 0.3 µM): < 31.6 nM
viability, T/C [1]: 97.9%
viability, T/C [2]: 88%
viability, T/C [3]: 95.7%
viability, T/C [4]: 65.1%
viability, T/C [5]: 68.5%
viability, T/C [6]: 16.4%
viability, T/C [7]: 91.7%
viability, T/C [8]: 83.2%
viability, T/C [9]: 75.7%
viability, T/C [10]: 66.3%
viability, T/C [11]: 63.3%
viability, T/C [12]: 13.3%
viability, T/C [13]: 81.2%
viability, T/C [14]: 60.9%
viability, T/C [15]: 61%
viability, T/C [16]: 62.7%
viability, T/C [17]: 48.6%
viability, T/C [18]: 12.9%
viability, T/C [19]: 57.4%
viability, T/C [20]: 44.2%
viability, T/C [21]: 51.2%
viability, T/C [22]: 49.9%
viability, T/C [23]: 18.6%
viability, T/C [24]: 12.2%
viability, T/C [25]: 23.2%
viability, T/C [26]: 20.8%
viability, T/C [27]: 20.7%
viability, T/C [28]: 17%
viability, T/C [29]: 5.39%
viability, T/C [30]: 10.7%
viability, T/C [31]: 12.3%
viability, T/C [32]: 13%
viability, T/C [33]: 11.2%
viability, T/C [34]: 11.6%
viability, T/C [35]: 3.99%
viability, T/C [36]: 12.9%
